Results: ChEMBL document CHEMBL1201862, “PubChem BioAssay data set” (2004)
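Protocol summary: plate cells (96-well), add compound at 5 concentrations, incubate 48 h, interpolate endpoints linearly. At the GI50, growth is halved.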 Activity calls are given as the source filed them. Rule as the data show it: active = GI50 up to about 1.1 µM and inactive = higher.

Legend:
Assay in all cases: inhibition of tumour cell growth, NCI panel, 48 h
SW-620 = test system: SW-620
SK-MEL-2 = test system: SK-MEL-2
COLO 205 = test system: COLO 205
OVCAR-4 = test system: OVCAR-4
M14 = test system: M14
NCI-H460 = test system: NCI-H460
OVCAR-5 = test system: OVCAR-5
CAKI-1 = test system: CAKI-1
SK-OV-3 = test system: SK-OV-3
Malme-3M = test system: Malme-3M
MOLT-4 = test system: MOLT-4
SF-268 = test system: SF-268
K562 = test system: K562
SK-MEL-28 = test system: SK-MEL-28
EKVX = test system: EKVX
HOP-62 = test system: HOP-62

Measured: GI50

CCOC(=O)N1CCN(P(=O)(Nc2ccc3[nH]c(NC(=O)OC)nc3c2)Oc2ccccc2)CC1 (stereo not given)
inactive: SW-620 > 100 µM | SK-MEL-2 > 100 µM | COLO 205 > 100 µM | OVCAR-4 > 100 µM | M14 > 100 µM | NCI-H460 > 100 µM | OVCAR-5 > 100 µM | CAKI-1 > 100 µM | SK-OV-3 > 100 µM | Malme-3M 31.6 µM | MOLT-4 > 100 µM | SF-268 > 100 µM | K562 35 µM | SK-MEL-28 > 100 µM

Cc1nc2c(n1CCO)C(=O)c1ccccc1C2=O
inactive: EKVX 55 µM | SW-620 32.8 µM | SK-MEL-2 18.4 µM | HOP-62 28.6 µM | COLO 205 18.9 µM | OVCAR-4 26.2 µM | M14 21.4 µM | NCI-H460 27.3 µM | SK-OV-3 > 100 µM | Malme-3M 11.8 µM | MOLT-4 28.9 µM | SF-268 32.5 µM | K562 25.6 µM | SK-MEL-28 93.3 µM

C[Si](C)(C)c1ccc(-c2sc(-c3ccc([Si](C)(C)C)s3)c3c2C[Si]2(C3)Cc3c(-c4ccc([Si](C)(C)C)s4)sc(-c4ccc([Si](C)(C)C)s4)c3C2)s1
inactive: SW-620 > 100 µM | HOP-62 > 100 µM | COLO 205 > 100 µM | OVCAR-4 > 100 µM | M14 > 100 µM | NCI-H460 > 100 µM | OVCAR-5 > 100 µM | CAKI-1 > 100 µM | SK-OV-3 > 100 µM | Malme-3M > 100 µM | MOLT-4 > 100 µM | SF-268 > 100 µM | K562 > 100 µM | SK-MEL-28 > 100 µM

Cc1[nH]c2ccccc2c1C(=O)CC1(O)C(=O)Nc2ccccc21 (stereo not given)
inactive: EKVX 73.1 µM | SW-620 > 100 µM | SK-MEL-2 87.7 µM | HOP-62 > 100 µM | COLO 205 > 100 µM | OVCAR-4 > 100 µM | M14 > 100 µM | NCI-H460 > 100 µM | OVCAR-5 > 100 µM | CAKI-1 > 100 µM | SK-OV-3 > 100 µM | MOLT-4 > 100 µM | SF-268 > 100 µM | K562 > 100 µM | SK-MEL-28 > 100 µM

Nc1ccc(C(=O)CC2(O)C(=O)Nc3ccccc32)cc1 (stereo not given)
inactive: EKVX > 100 µM | SW-620 > 100 µM | SK-MEL-2 > 100 µM | COLO 205 > 100 µM | OVCAR-4 > 100 µM | M14 > 100 µM | NCI-H460 > 100 µM | OVCAR-5 > 100 µM | CAKI-1 > 100 µM | SK-OV-3 > 100 µM | Malme-3M > 100 µM | MOLT-4 > 100 µM | SF-268 > 100 µM | K562 > 100 µM | SK-MEL-28 > 100 µM

O=C(CCc1nnc2s/c(=C\c3ccc(Cl)c(Cl)c3)c(=O)n12)Nc1ccc(Cl)c(Cl)c1
inactive: EKVX > 100 µM | SW-620 > 100 µM | HOP-62 > 100 µM | COLO 205 56.6 µM | OVCAR-4 73.5 µM | M14 > 100 µM | NCI-H460 > 100 µM | OVCAR-5 > 100 µM | CAKI-1 > 100 µM | SK-OV-3 > 100 µM | Malme-3M > 100 µM | MOLT-4 20.7 µM | SF-268 55.5 µM | K562 72.8 µM | SK-MEL-28 > 100 µM

CCOC(=O)C1=C(C)CC2C(=O)OC(=O)C2C1(C)C (stereo not given)
inactive: EKVX > 100 µM | SW-620 > 100 µM | SK-MEL-2 > 100 µM | COLO 205 > 100 µM | M14 > 100 µM | NCI-H460 > 100 µM | OVCAR-5 > 100 µM | SK-OV-3 > 100 µM | Malme-3M > 100 µM | MOLT-4 > 100 µM | SF-268 > 100 µM | K562 > 100 µM | SK-MEL-28 > 100 µM
